No end group written: not given here.
Tested on: drug-resistant Mycobacterium tuberculosis
Conditions: peptide 10 micrograms per ml, seven days

For “HPGSRIVLSLDVPIGLLQILLEQARARAAREQATTNARILARV-NH2 [Stresscopin-related peptide]”, the “% inhibition” value was 0.0%.

Source: patent US20100204113A1, “USE OF STRESSCOPIN-RELATED PEPTIDE AS A THERAPEUTIC AGENT” (priority 2007, published 2010)
